The target of this assay is Potassium voltage-gated channel subfamily KQT member 2 (Rattus norvegicus) (UniProt O88943). Nature of the assay: PubChem AID 1407. Conditions: KCNQ2-expressing cells, rubidium efflux, at 10 µM, stronger effect = higher value.
Chain of Potassium voltage-gated channel subfamily KQT member 2 (Rattus norvegicus) (O88943 whole entry, looked up): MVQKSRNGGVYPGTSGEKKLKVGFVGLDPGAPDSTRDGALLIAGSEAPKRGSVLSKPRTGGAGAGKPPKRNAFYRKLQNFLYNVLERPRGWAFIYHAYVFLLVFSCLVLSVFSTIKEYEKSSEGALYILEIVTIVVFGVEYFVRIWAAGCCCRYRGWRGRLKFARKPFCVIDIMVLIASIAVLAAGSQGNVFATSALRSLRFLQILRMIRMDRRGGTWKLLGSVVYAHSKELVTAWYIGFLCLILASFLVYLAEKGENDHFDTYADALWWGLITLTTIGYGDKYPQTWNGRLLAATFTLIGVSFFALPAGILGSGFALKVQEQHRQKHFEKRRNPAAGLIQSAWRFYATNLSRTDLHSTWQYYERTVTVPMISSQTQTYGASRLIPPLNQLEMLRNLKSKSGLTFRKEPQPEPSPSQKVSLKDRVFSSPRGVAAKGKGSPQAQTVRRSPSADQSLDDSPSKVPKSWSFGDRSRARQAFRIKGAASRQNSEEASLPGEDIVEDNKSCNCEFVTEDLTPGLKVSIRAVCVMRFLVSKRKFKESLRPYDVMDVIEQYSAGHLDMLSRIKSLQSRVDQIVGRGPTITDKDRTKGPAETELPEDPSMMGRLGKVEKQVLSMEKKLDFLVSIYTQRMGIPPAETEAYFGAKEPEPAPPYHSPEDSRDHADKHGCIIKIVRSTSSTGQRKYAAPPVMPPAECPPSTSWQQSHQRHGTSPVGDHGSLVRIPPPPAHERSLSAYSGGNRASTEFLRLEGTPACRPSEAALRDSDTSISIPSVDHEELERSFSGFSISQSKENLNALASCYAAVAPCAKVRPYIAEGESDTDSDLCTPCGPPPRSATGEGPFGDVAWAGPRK

As to `O[N+]1=CC=CCC1=S.On1ccccc1=S.[Zn]`, the activity increase was 23.1%. Besides, the efflux (measured here: rubidium efflux percent) is 85.5%.

These data come from PubChem BioAssay AID1407 (Johns Hopkins Ion Channel Center, 2008).
